Assay results: US7119262B1, “Production of transgenic poinsettia” (priority 1997, dated 2006)
Read-outs that look alike come from different tables or passages of the source. Where no end group is shown, it is not given here.

Assays:
Bemisia = assay: Whitefly artificial feeding study with tryptamine-supplemented diets; type: in vivo, Bemisia tabaci; settings: artificial diet
Method: To assess whether tryptamine was acutely toxic to whitefly, artificial feeding studies were conducted in which whiteflies were fed artificial diets supplemented with a range of tryptamine concentrations.

[1] = system: ethylene-induced epinasty; settings: plants sprayed with 4 mM solution, 18 hrs later exposed to ethylene for 24 hours
Method: To test for ethylene sensitivity, untransformed and transgenic poinsettia plants were exposed to 15 μl/liter ethylene for 24 hours to induce epinasty.
At 18 hrs after STS treatment, the STS-treated poinsettias were exposed to ethylene for 24 hours.

Fusarium graminearum = settings: non-germinated spores, 24 hrs
Erwinia carotovora = settings: 24 h
Pseudomonas syringae = settings: 24 h
Rhyzoctonia solani R2 = settings: 24 h
[2] = system: Phytophthora parasitica (petunia)
[3] = system: Phytophthora parasitica (vinca); settings: vinca isolate, 24 hrs
Thielaviopsis basicola = settings: 24 h
Botrytis cinerea = settings: 24 h
[4] = system: bacterial and fungal phytopathogens; assay: In vitro anti-microbial activity of lytic peptides (statement in words); type: cell-based
Fusarium solani = settings: 24 h
[5] = petunia isolate, germinated spores, 24 hrs

Molecule: NCCc1c[nH]c2ccccc12 [Tryptamine, tryptamine]
- tryptamine concentration toxic to Bemisia (Bemisia): 50 to 100 µg/mL

Molecule: silver thiosulfate [STS]
- signs of epinasty or wilting after ethylene treatment [1]: little, if any, signs of epinasty or wilting

Molecule: GIGKFLHSAKKFGKAFVGEIMNS [Mag 2, magainin 2, reference compound]
- Minimum Inhibitory Concentration (Fusarium graminearum): 4 to 8 µg/mL
- Minimum Inhibitory Concentration (Erwinia carotovora): 32 µg/mL
- Minimum Inhibitory Concentration (Pseudomonas syringae): 32 µg/mL
- Minimum Inhibitory Concentration (Rhyzoctonia solani R2): 16 to 32 µg/mL
- Minimum Inhibitory Concentration ([2]; 24 h): >128 µg/mL

Molecule: GMASKAGAIAGKIAKVALKAL-OH [PGL]
- Minimum Inhibitory Concentration (Fusarium graminearum): 4 to 8 µg/mL
- Minimum Inhibitory Concentration (Erwinia carotovora): 32 µg/mL
- Minimum Inhibitory Concentration (Pseudomonas syringae): >64 µg/mL
- Minimum Inhibitory Concentration (Rhyzoctonia solani R2): 16 to 32 µg/mL
- Minimum Inhibitory Concentration [2, 5]: >128 µg/mL
- Minimum Inhibitory Concentration ([3]; germinated spores): >128 µg/mL
- Minimum Inhibitory Concentration ([3]; non-germinated spores): >256 µg/mL

Molecule: GIGKFLKSAKKFGKAFVKILNS [MSI-99]
- Minimum Inhibitory Concentration (Fusarium graminearum): 4 µg/mL
- Minimum Inhibitory Concentration (Thielaviopsis basicola): 4 µg/mL
- Minimum Inhibitory Concentration (Rhyzoctonia solani R2): 16 µg/mL
- Minimum Inhibitory Concentration ([2]; 24 h): 8 to 16 µg/mL
- Minimum Inhibitory Concentration (Botrytis cinerea): 8 µg/mL

Molecule: MSI-55 (KIAGKIAKIAGKIAKIAGKIA)
- antibacterial and anti-fungal activity in vitro [4]: potent antibacterial and anti-fungal activity

Molecule: KRKRAVKRVGRRLKKLARKIARLGVAF [Line D5-C, D5-C]
- Minimum Inhibitory Concentration (Fusarium solani): 4 µg/mL
- Minimum Inhibitory Concentration (Thielaviopsis basicola): 16 µg/mL
- Minimum Inhibitory Concentration (Rhyzoctonia solani R2): 32 to 64 µg/mL
- Minimum Inhibitory Concentration [2, 5]: 16 to 32 µg/mL
- Minimum Inhibitory Concentration ([3]; germinated spores): 16 to 32 µg/mL
- Minimum Inhibitory Concentration ([3]; non-germinated spores): 16 µg/mL
